30 compounds from ChEMBL document CHEMBL4699440, “Comprehensive review on the anti-bacterial activity of 1,2,3-triazole hybrids” (Eur J Med Chem, 2019) can be followed below.

Converted amounts (≈) assume the structure as drawn.

Format in all cases: functional
The subject of assay [1] is Aspergillus niger. The experiment in a line: Antifungal activity against Aspergillus niger NCIM 1196 incubated for 48 hrs.
The subject of assay [2] is Penicillium chrysogenum. In words: Antifungal activity against Penicillium chrysogenum NCIM 723 incubated for 48 hrs.
Assay [3] has as its system Curvularia lunata. In words: Antifungal activity against Curvularia lunata NCIM 1131 incubated for 48 hrs.
Assay [4] has as its system Staphylococcus aureus. In words: Antibacterial activity against Staphylococcus aureus ATCC 29737 incubated for 24 hrs.
In assay [5] the test system is Micrococcus luteus. In words: Antibacterial activity against Micrococcus Luteus ATCC 398 incubated for 24 hrs.
Assay [6] has as its system Bacillus cereus. In words: Antibacterial activity against Bacillus cereus ATCC 6630 incubated for 24 hrs.
Assay [7] has as its system Escherichia coli. In words: Antibacterial activity against Escherichia coli NCIM 2256 incubated for 24 hrs.
The test system of assay [8] is Pseudomonas fluorescens. In words: Antibacterial activity against Pseudomonas fluorescens NCIM 2173 incubated for 24 hrs.
Assay [9] deals with Sphingomonas paucimobilis. In words: Antibacterial activity against Flavobacterium devorans ATCC 10829 incubated for 24 hrs.
The subject of assay [10] is Escherichia coli. In words: Antibacterial activity against Escherichia coli ATCC 25922 incubated for 24 hrs by tube dilution method.
The test system of assay [11] is Klebsiella pneumoniae. In words: Antibacterial activity against Klebsiella pneumoniae ATCC 15380 incubated for 24 hrs by tube dilution method.
Assay [12] relates to Pseudomonas aeruginosa. In words: Antibacterial activity against Pseudomonas aeruginosa ATCC 12454 incubated for 24 hrs by tube dilution method.
Assay [13] deals with Staphylococcus aureus. The experiment in a line: Antibacterial activity against Staphylococcus aureus ATCC 25923 incubated for 24 hrs by tube dilution method.
The subject of assay [14] is Streptococcus pyogenes. The experiment in a line: Antibacterial activity against Streptococcus pyogenes ATCC 35552 incubated for 24 hrs by tube dilution method.
Assay [15] deals with Staphylococcus aureus. The experiment in a line: Antibacterial activity against Staphylococcus aureus by agar dilution method. In general terms: In agar dilution the substance is mixed into plates at graded concentrations.
Assay [16] concerns Bacillus cereus. In words: Antibacterial activity against Bacillus cereus by agar dilution method.
Assay [17] has as its system Escherichia coli. In words: Antibacterial activity against Escherichia coli by agar dilution method.
Assay [18] deals with Pseudomonas aeruginosa. The experiment in a line: Antibacterial activity against Pseudomonas aeruginosa by agar dilution method.

In the case of `Clc1ccc(COC(Cn2ccnc2)c2ccc(Cl)cc2Cl)c(Cl)c1` (stereo unspecified) [MICONAZOLE], the MIC in [1], in assay [2] and in assay [3] was 16 µg/mL (≈ 38.4 µM) in each case.

With `Cc1cc(OCc2cn(Cc3ccc(Br)cc3)nn2)cc2oc(=O)ccc12`, the MIC in assay [4], in assay [5], in [6], in assay [7], in assay [8] and in assay [9] was 2 µg/mL (≈ 4.69 µM) throughout. Also, the MIC in [1], in assay [2] and in assay [3] was 2 µg/mL (≈ 4.69 µM) throughout.

As for `O=Cc1cn(-c2ccccc2)nc1-c1ccccc1OCc1cn(Cc2ccc(C(=O)O)cc2)nn1`, the MIC in [10], in assay [11], in assay [12], in assay [13] and in assay [14] was 5.5 µg/mL (≈ 11.5 µM) throughout.

For `O=Cc1cn(-c2ccccc2)nc1-c1cc(Cl)ccc1OCc1cn(Cc2ccccc2)nn1`, the MIC in [10], in assay [11], in [12], in assay [13] and in [14] was 5.5 µg/mL (≈ 11.7 µM) each time.

Take `Cc1cc(OCc2cn(Cc3ccc(Cl)cc3)nn2)cc2oc(=O)ccc12`: the MIC in [4], in assay [5], in [6], in assay [7], in [8] and in [9] was 2 µg/mL (≈ 5.24 µM) each time. The MIC in [1], in assay [2] and in assay [3] was 2 µg/mL (≈ 5.24 µM) each time.

On to `O=c1cc(OCc2cn(Cc3ccc(Cl)cc3)nn2)c2ccccc2o1`, for which the MIC in [4], in assay [5], in assay [6], in [7], in assay [8] and in assay [9] was 2 µg/mL (≈ 5.44 µM) in each case. Moreover, the MIC in assay [1], in assay [2] and in assay [3] was 2 µg/mL (≈ 5.44 µM) in each case.

Consider `COc1ccc(-c2nn(-c3ccccc3)cc2/C=N/NC(=O)c2cccc(-n3cc(-c4ccccc4)nn3)c2)cc1`, for which the MIC in assay [15], in [16], in assay [17] and in [18] was 2 µg/mL (≈ 3.71 µM) each time.

Regarding `O=Cc1cn(-c2ccccc2)nc1-c1ccccc1OCc1cn(Cc2cccc(Cl)c2)nn1`, the MIC in assay [10], in assay [11], in assay [12], in [13] and in assay [14] was 5.5 µg/mL (≈ 11.7 µM) in each case.

For `O=Cc1cn(-c2ccccc2)nc1-c1cc(Cl)ccc1OCc1cn(Cc2cccc(Cl)c2)nn1`, the MIC in [10], in [11], in assay [12], in assay [13] and in assay [14] was 5.5 µg/mL (≈ 10.9 µM) in each case.

As for `O=C(N/N=C/c1cn(-c2ccccc2)nc1-c1ccccc1)c1cccc(-n2cc(-c3ccccc3)nn2)c1`, the MIC in assay [15], in [16], in [17] and in assay [18] was 8 µg/mL (≈ 15.7 µM) each time.

For the compound `Cc1cc(OCc2cn(Cc3cccc([N+](=O)[O-])c3)nn2)cc2oc(=O)ccc12`, the MIC in assay [4], in [5], in [6], in assay [7], in assay [8] and in assay [9] was 2 µg/mL (≈ 5.1 µM) in each case. Also, the MIC in [1], in assay [2] and in assay [3] was 2 µg/mL (≈ 5.1 µM) throughout.

In the case of `COc1ccc(Cn2cc(COc3ccccc3-c3nn(-c4ccccc4)cc3C=O)nn2)cc1`, the MIC in assay [10], in assay [11], in [12], in assay [13] and in [14] was 6.5 µg/mL (≈ 14 µM) in each case.

For `O=C(N/N=C/c1cn(-c2ccccc2)nc1-c1ccc(F)cc1)c1cccc(-n2cc(-c3ccccc3)nn2)c1`, the MIC in assay [15], in assay [16], in [17] and in assay [18] was 2 µg/mL (≈ 3.79 µM) throughout.

On to `Cc1cc(OCc2cn(Cc3ccccc3)nn2)cc2oc(=O)ccc12`, for which the MIC in [4], in [5], in assay [6], in assay [7], in [8] and in assay [9] was 2 µg/mL (≈ 5.76 µM) each time. Besides, the MIC in assay [1], in [2] and in assay [3] was 2 µg/mL (≈ 5.76 µM) in each case.

`Cc1cc(C)cc(Cn2cc(COc3ccccc3-c3nn(-c4ccccc4)cc3C=O)nn2)c1`: the MIC in assay [10], in [11], in assay [12], in assay [13] and in assay [14] was 5.5 µg/mL (≈ 11.9 µM) in each case.

On to `O=C(N/N=C/c1cn(-c2ccccc2)nc1-c1ccc(O)cc1O)c1cccc(-n2cc(-c3ccccc3)nn2)c1`, for which the MIC in [15], in [16], in [17] and in assay [18] was 2 µg/mL (≈ 3.69 µM) throughout.

For the compound `O=C(N/N=C/c1cn(-c2ccccc2)nc1-c1ccc(Cl)cc1)c1cccc(-n2cc(-c3ccccc3)nn2)c1`, the minimal inhibitory concentration (MIC) in assay [15], in assay [16], in [17] and in assay [18] was 4 µg/mL (≈ 7.35 µM) each time.

In the case of `O=C(N/N=C/c1cn(-c2ccccc2)nc1-c1ccc([N+](=O)[O-])cc1)c1cccc(-n2cc(-c3ccccc3)nn2)c1`, the MIC in [15], in assay [16], in assay [17] and in assay [18] was 2 µg/mL (≈ 3.61 µM) each time.

In the case of `O=C(N/N=C/c1cn(-c2ccccc2)nc1-c1cccc2ccccc12)c1cccc(-n2cc(-c3ccccc3)nn2)c1`, the MIC in assay [15], in [16], in [17] and in assay [18] was 2 µg/mL (≈ 3.57 µM) each time.

Turning to `O=c1cc(OCc2cn(Cc3ccc([N+](=O)[O-])cc3)nn2)c2ccccc2o1`, the MIC in assay [4], in [5], in assay [6], in [7], in assay [8] and in [9] was 2 µg/mL (≈ 5.29 µM) each time. The MIC in [1], in [2] and in [3] was 2 µg/mL (≈ 5.29 µM) throughout.

As to `O=Cc1cn(-c2ccccc2)nc1-c1ccccc1OCc1cn(Cc2ccc(Br)cc2)nn1`, the MIC in [10], in assay [11], in assay [12], in assay [13] and in assay [14] was 5.5 µg/mL (≈ 10.7 µM) in each case.

In the case of `O=C(N/N=C/c1cn(-c2ccccc2)nc1-c1cccc(O)c1)c1cccc(-n2cc(-c3ccccc3)nn2)c1`, the MIC in assay [15], in assay [16], in [17] and in [18] was 2 µg/mL (≈ 3.81 µM) in each case.

As for `Cc1cc(OCc2cn(Cc3ccc([N+](=O)[O-])cc3)nn2)cc2oc(=O)ccc12`, the MIC in assay [4], in assay [5], in assay [6], in [7], in [8] and in assay [9] was 2 µg/mL (≈ 5.1 µM) each time. In addition, the MIC in assay [1], in assay [2] and in [3] was 2 µg/mL (≈ 5.1 µM) throughout.

`Cc1ccc(-c2nn(-c3ccccc3)cc2/C=N/NC(=O)c2cccc(-n3cc(-c4ccccc4)nn3)c2)cc1`: the MIC in [15], in assay [16], in assay [17] and in assay [18] was 2 µg/mL (≈ 3.82 µM) in each case.

For `O=c1cc(OCc2cn(Cc3cccc(Cl)c3)nn2)c2ccccc2o1`, the MIC in assay [4], in assay [5], in [6], in [7], in assay [8] and in assay [9] was 2 µg/mL (≈ 5.44 µM) throughout. For the same compound, the MIC in assay [1], in assay [2] and in assay [3] was 2 µg/mL (≈ 5.44 µM) throughout.

In the case of `O=C(N/N=C/c1cn(-c2ccccc2)nc1-c1cccs1)c1cccc(-n2cc(-c3ccccc3)nn2)c1`, the MIC in assay [15], in assay [16], in [17] and in [18] was 2 µg/mL (≈ 3.88 µM) throughout.

For the compound `Cc1cc(OCc2cn(Cc3cccc(Cl)c3)nn2)cc2oc(=O)ccc12`, the MIC in [4], in assay [5], in [6], in assay [7], in assay [8] and in assay [9] was 2 µg/mL (≈ 5.24 µM) throughout. In addition, the minimal inhibitory concentration (MIC) in assay [1], in assay [2] and in assay [3] was 2 µg/mL (≈ 5.24 µM) each time.

On to `O=c1cc(OCc2cn(Cc3ccc(Br)cc3)nn2)c2ccccc2o1`, for which the MIC in assay [4], in assay [5], in [6], in assay [7], in assay [8] and in [9] was 2 µg/mL (≈ 4.85 µM) throughout. For the same compound, the MIC in assay [1], in assay [2] and in assay [3] was 2 µg/mL (≈ 4.85 µM) in each case.

On to `O=c1cc(OCc2cn(Cc3cccc([N+](=O)[O-])c3)nn2)c2ccccc2o1`, for which the MIC in assay [4], in [5], in assay [6], in assay [7], in [8] and in assay [9] was 2 µg/mL (≈ 5.29 µM) each time. Further, the MIC in assay [1], in [2] and in assay [3] was 2 µg/mL (≈ 5.29 µM) in each case.

As to `O=C(N/N=C/c1cn(-c2ccccc2)nc1-c1ccc(Br)cc1)c1cccc(-n2cc(-c3ccccc3)nn2)c1`, the MIC in [15], in assay [16], in assay [17] and in assay [18] was 2 µg/mL (≈ 3.4 µM) each time.
